Assay results: US20240376109A1, “PYRAZOLO[1,5-A]PYRIMIDINE COMPOUND FOR THE TREATMENT OF DERMAL DISORDERS” (OTSUKA PHARMACEUTICAL CO., LTD., priority 2021, published 2024)
Read-outs that look alike come from different tables or passages of the source.

Legend:
ICR mice = test: Scratching behavior test with PAR2 agonist peptide (SLIGRL-NH2) administration; type: in vivo, mouse; conditions: 40 μL of 6% test compound solution applied to back, SLIGRL-NH2 intradermal, scratching counted 10 to 40 minutes after
Description: Test Example 2: Scratching Behavior Test with PAR2 Agonist Peptide Administration
Magnets for measuring scratching behavior(Neuroscience, Inc.) were implanted in both legs of 6- to 7-week-old female ICR mice under 3.5% isoflurane inhalation anesthesia.
Under isoflurane inhalation anesthesia, the upper back was shaved about 2×3 cm with a shaver and 40 μL of a 6% of test compound solution was applied with a micropipette. The animals were then kept in a dedicated cage for 1 hour. […] Then, under isoflurane inhalation anesthesia, 10 μL of a 25 mg/mL solution of PAR2 agonist peptide (SLIGRL-NH2) in distilled water was administered intradermally by using a needle attached to a Hamilton syringe. The animals were returned to the cage and the scratching frequency was measured by the device for 30 minutes from 10 to 40 minutes after the administration.
The inhibitory effect of the test compounds on scratching behavior was calculated as a percentage of the number of scratches in the solvent-applied and PAR2 agonist peptide-treated group, and is shown in Table 4 as a percentage.

PAR2 = biological target: T1, PAR2 (Homo sapiens, UniProt P55085); test: Intracellular calcium concentration measurement (SLIGKV-NH2-induced calcium change, Fluo-8, FDSS/μCELL); type: cell-based
T1 construct: HEK293 cell lines derived from human embryonic kidney cultured in a MEM culture medium; endogenous in cells; host or cells: HEK293
T1 sequence (P55085 26-397): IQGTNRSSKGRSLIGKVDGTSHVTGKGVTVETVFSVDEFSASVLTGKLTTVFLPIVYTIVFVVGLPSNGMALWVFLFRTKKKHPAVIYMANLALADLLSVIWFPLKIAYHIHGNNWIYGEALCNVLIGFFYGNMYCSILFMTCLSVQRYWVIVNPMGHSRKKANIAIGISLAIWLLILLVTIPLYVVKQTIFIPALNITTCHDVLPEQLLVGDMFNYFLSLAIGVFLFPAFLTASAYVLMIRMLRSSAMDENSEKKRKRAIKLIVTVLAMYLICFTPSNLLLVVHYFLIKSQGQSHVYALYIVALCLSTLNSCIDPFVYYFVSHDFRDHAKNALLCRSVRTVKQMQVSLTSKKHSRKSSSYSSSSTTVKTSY

NC/Nga mice = test: Scratching behavior test using atopic dermatitis model (SDS and mite antigen ointment sensitization); conditions: 60 μL applied, 7 hours after application
NZW rabbits = test: Rabbit skin cumulative irritation test (erythema and edema scores, 7 days); type: in vivo; parameters: key: sum of erythema (5-point scale) + edema (5-point scale) scores; conditions: 50 μL of 3% solution in 70% ethanol daily for 7 days; for Irritant score Day 7: average total score of erythema and edema on Day 7; for Irritant score Maximum: maximum (total) score of erythema and edema during the test period
Description: Test Example 4: Rabbit Skin Cumulative Irritation Test
18-20 week-old female NZW rabbits shaved on the back with a shaver were fitted with a collar (Natsume Seisakusho Co., Ltd.). A 2.5 cm×2.5 cm frame was placed on the back of the rabbits, and 50 μL of a 3% solution of each compound in 70% ethanol was applied to the place in 2 or 3 rabbits. The next day (approximately 24 hours later), the compound applied on the previous day was wiped off with a cotton pad soaked in lukewarm water, and approximately 30 minutes later, erythema (5-point scale) and edema (5-point scale) were evaluated according to the score criteria shown below.
After the score evaluation, the compound was applied again. This process was conducted for 7 days, and irritancy was evaluated by the average of the total score of erythema and edema on the last day of evaluation (Day 7) and the maximum (total) scores during the test period.
The score evaluation criteria were as follows.

[1] = assessed concentration 6%, solvent 100% ethanol
[2] = HEK293 cells, SLIGKV-NH2 10 μM-induced intracellular calcium change, read-out: IC50

IC50 (PAR2; [2]) [nM]	SMILES	scratching-behavior inhibition rate (ICR mice; solvent 100% ethanol) [%]	IC50 (PAR2; IC50 (nM)) [nM]	Scratching behavior inhibition rate (NC/Nga mice; [1]) [%]	Irritant score Day 7 (NZW rabbits)	Irritant score Maximum (NZW rabbits)	scratching-behavior inhibition rate (ICR mice; solvent 70% ethanol) [%]	Scratching behavior inhibition rate (NC/Nga mice; assessed concentration 6%, solvent 70% ethanol) [%]	Scratching behavior inhibition rate (NC/Nga mice; assessed concentration 3%, solvent 100% ethanol) [%]
–	CC(C)c1cc(CC2CCCCC2)nc2cc(C(=O)N3CCCCCC3)nn12 [Example 7, azepan-1-yl(5-(cyclohexylmethyl)-7-isopropylpyrazolo[1,5-a]pyrimidin-2-yl)methanone]	32	113	70	0.3	1.3	–	–	–
23	O=C(c1cc2nc(CC3CCCCC3)cc(C(F)(F)F)n2n1)N1CCCCCC1 [Example 3, azepan-1-yl(5-(cyclohexylmethyl)-7-(trifluoromethyl)pyrazolo[1,5-a]pyrimidin-2-yl)methanone]	–	–	–	1.5	1.6	33	71	–
150	CC(C)c1cc(CC2CCCC2)nc2cc(C(=O)N3CCCCCC3)nn12 [Example 15, azepan-1-yl-[5-(cyclopentylmethyl)-7-propan-2-ylpyrazolo[1,5-a]pyrimidin-2-yl]methanone]	44	–	–	0.0	0.7	–	–	52

SMILES	IC50 (PAR2; [2]) [nM]	scratching-behavior inhibition rate (ICR mice; solvent 100% ethanol) [%]	IC50 (PAR2; IC50 (nM)) [nM]	Scratching behavior inhibition rate (NC/Nga mice; [1]) [%]	Irritant score Day 7 (NZW rabbits)	Irritant score Maximum (NZW rabbits)	scratching-behavior inhibition rate (ICR mice; solvent 70% ethanol) [%]	Scratching behavior inhibition rate (NC/Nga mice; assessed concentration 6%, solvent 70% ethanol) [%]	Scratching behavior inhibition rate (NC/Nga mice; assessed concentration 3%, solvent 100% ethanol) [%]
CC(C)c1cc(CC2CCCC2)nc2cc(C(=O)N3CCCCC3(C)C)nn12 [Example 12]	76	51	–	102	0.0	0.0	–	–	–
